Results on 4 molecules are retold here after paper PMC12500448 (Frontiers in Pharmacology, 2025).

Like-named read-outs stand apart in the source and are kept apart here.

Series [1] deals with rat liver microsomes (RLM). The settings on record: 1-200 μM quetiapine. How it is done:
(§1) 200 μL enzymatic kinetic incubation system was adjusted according to the measurement purpose with the corresponding incubation conditions. […] The mixture without NADPH was pre-incubated at 37 °C in a water bath for 5 min, then 10 μL NADPH (20 mM) was added to initiate the reaction. Following a further 30 min incubation, the reaction was terminated by freezing at −80 °C. Prior to sample thawing, 400 μL acetonitrile was added to precipitate proteins, and 20 μL lurasidone (200 ng/mL) was added as IS. After complete dissolution of the samples, they were vortexed for 2 min and centrifuged for 10 min (13,000 rpm), then the supernatants were taken for UPLC-MS/MS detection and analysis.
(§2) The Michaelis-Menten curves, IC50 curves, Lineweaver–Burk plots, and the mean plasma concentration–time curves were generated using GraphPad Prism software (version 9.5; GraphPad Software Inc., San Diego, CA). The pharmacokinetic parameters were derived using the non-compartmental model analysis with Drug and Statistics software (version 3.0 software, Mathematical Pharmacology Professional Committee of China, Shanghai, China).

The subject of series [2] is human liver microsomes (HLM). The settings on record: 1-200 μM quetiapine. On the procedure: as §1, §2
A short description of series [3]: Pharmacokinetics of quetiapine and N-desalkylquetiapine in rats with or without nicardipine. The note with it: rat; for CL/F: read-out: CLz/F (converted). It counts as in vivo, Sprague-Dawley rats. How it is done:
Due to the similarity between their hepatic enzyme system and humans, Sprague-Dawley male rats are widely used in pharmacokinetics ([Martignoni et al., 2006]; [Riccardi et al., 2018]). This pharmacokinetic study was conducted on eight healthy male Sprague-Dawley rats provided by the Animal Experiment Center of the First Affiliated Hospital of Wenzhou Medical University (Zhejiang, China). Animals were housed in an environment with a temperature of 20 °C–26 °C, relative humidity of 55% ± 15%, and a light-dark cycle of 12 h/day, in strict following the guidelines for the care and use of laboratory animals by the National Research Council. The research protocol was adhered to the ARRIVE guidelines and was approved by the Experimental Animal Ethics Committee of the First Affiliated Hospital of Wenzhou Medical University (WYYY-IACUC-AEC-2023–064). Before the formal experiment, in order to mitigate the influence of food on drug absorption, Sprague-Dawley rats were fasted for 12 h and then randomly divided into two groups. Nicardipine and quetiapine are dissolved using corn oil. […] Following centrifugation at 8,000 rpm for 10 min, 100 μL of plasma supernatant was precisely taken into a new clean and dry 1.5 mL EP tube, where 300 μL acetonitrile and 10 μL IS working solution (200 ng/mL) were added, and after vortexing and centrifugation, the supernatants were taken for injection and analysis.

For series [4] the following is noted: treatment of refractory depression; ref Reif et al., 2023; cited from earlier work.
On the set-up of series [5]: method as in Chen et al., 2024. The settings on record: in vivo; ref Chen et al., 2024; cited from earlier work.
Series [6] relates to rat liver microsomes (RLM). The series is described as follows: Screening of 10 drugs for inhibition of quetiapine metabolism (formation of N-desalkylquetiapine) in RLM. The settings on record: RLM 0.3 mg/mL, drug 100 μM, quetiapine at Km. It counts as in vitro ADME. On the procedure: as §1
[7] abbreviates: male, Sprague-Dawley, plasma, po, 15 mg/kg, quetiapine in plasma, quetiapine 15 mg/kg + nicardipine 4 mg/kg by gavage 30 min before.
[8] abbreviates: male, Sprague-Dawley, plasma, po, 15 mg/kg, quetiapine in plasma, quetiapine 15 mg/kg by gavage alone.
The mark [9] stands for this setting: metabolite N-desalkylquetiapine in plasma, quetiapine 15 mg/kg + nicardipine 4 mg/kg by gavage.
The mark [10] stands for this setting: metabolite N-desalkylquetiapine in plasma, quetiapine 15 mg/kg by gavage alone.

Consider `OCCOCCN1CCN(C2=Nc3ccccc3Sc3ccccc32)CC1` [quetiapine], for which the values for the Km in series [1] and in series [2] were 48.8 µM and 50.8 µM, respectively. Further, the values for the area under the curve AUC(0-inf) in series [3] (setting [7]) and in series [3] (setting [8]) were 108 ± 31.4 ng·h/mL and 38.1 ± 6.91 ng·h/mL, respectively. Also, the values for the half-life in series [3] (setting [7]) and in series [3] (setting [8]) were 5.16 ± 2.82 h and 5.12 ± 3.56 h, respectively. In addition, the area under the curve AUC(0-t) (as a rule, the area under the concentration-time curve up to a stated or last time point) in series [3] (male, Sprague-Dawley, plasma, po, 15 mg/kg, quetiapine in plasma, quetiapine 15 mg/kg + nicardipine 4 mg/kg by gavage 30 min before, read-out: AUC(0-t)) worked out at 106 ± 30.3 ng·h/mL; in series [3] (male, Sprague-Dawley, plasma, po, 15 mg/kg, quetiapine in plasma, quetiapine 15 mg/kg by gavage alone, read-out: AUC(0-t)), 36 ± 5.48 ng·h/mL. For the same molecule, the CL/F was 2460 mL/min/kg in series [3] (setting [7]) and 6730 mL/min/kg in series [3] (setting [8]). The highest concentration (Cmax) (in general, the highest concentration seen after dosing) was 28.8 ± 10.7 ng/mL in series [3] (male, Sprague-Dawley, plasma, po, 15 mg/kg, quetiapine in plasma, quetiapine 15 mg/kg + nicardipine 4 mg/kg by gavage 30 min before, read-out: Cmax) and 12 ± 2.28 ng/mL in series [3] (male, Sprague-Dawley, plasma, po, 15 mg/kg, quetiapine in plasma, quetiapine 15 mg/kg by gavage alone, read-out: Cmax). For the same molecule, the Tmax – broadly, the time from dosing to the highest level – in series [3] (male, Sprague-Dawley, plasma, po, 15 mg/kg, quetiapine in plasma, quetiapine 15 mg/kg + nicardipine 4 mg/kg by gavage 30 min before, read-out: Tmax) worked out at 0.88 ± 0.52 h; in series [3] (male, Sprague-Dawley, plasma, po, 15 mg/kg, quetiapine in plasma, quetiapine 15 mg/kg by gavage alone, read-out: Tmax) it was 0.94 ± 0.52 h. The “incidence of adverse reactions” value in series [4] is reported as 78.0%. Besides, the “incidence of serious adverse reactions” value in series [4] is given as 5.7%.

On to `COC(=O)C1=C(C)NC(C)=C(C(=O)OCCN(C)Cc2ccccc2)C1c1cccc([N+](=O)[O-])c1` (stereo not shown) [nicardipine], for which, in series [5], the “increase of AUC0−∞ of almonertinib” value is on record as 0.87 fold and the “increase of AUC(0-t) of almonertinib” value was 0.95 fold.

Regarding `c1ccc2c(c1)N=C(N1CCNCC1)c1ccccc1S2` [N-desalkylquetiapine], in series [3] (setting [9]), the “AUC0−∞” value came out at 80.29 ± 27.62 ng·h/mL, the exposure AUC(0-t) came out at 70.19 ± 22.75 ng·h/mL, the CLz/F was determined as 3499.8 ± 1541 mL/min/kg and the Cmax is 14.98 ± 11.59 ng/mL. Besides, in series [3] (setting [9]), the time to peak (Tmax) is recorded as 0.69 ± 0.55 h and the t1/2 was 8.54 ± 5.49 h. In series [3] (setting [10]), the “AUC0−∞” value was 161.47 ± 62.64 ng·h/mL, the “AUC(0-t)” value was determined as 160.62 ± 63.16 ng·h/mL, the CLz/F worked out at 1692 ± 501.3 mL/min/kg and the Cmax was found to be 50.66 ± 32.77 ng/mL. In addition, in series [3] (setting [10]), the Tmax is given as 0.31 ± 0.13 h and the t1/2 is reported as 3.19 ± 1.76 h.

Take `O=c1c(O)c(-c2ccc(O)c(O)c2)oc2cc(O)cc(O)c12` [quercetin]: the “inhibition rate against quetiapine metabolism” value in series [6] is 61.47%.
